Test results taken from ChEMBL document CHEMBL4312024, “Optimization of piperazine-derived ureas privileged structures for effective antiadenovirus agents” (Eur J Med Chem, 2020).
Active and inactive are the calls of the source. The rule behind the calls is not given here.

What was measured:
[1] = Selectivity Index, ratio of CC50 for human A549 cells to IC50 for Human adenovirus 5 infected in HEK293beta5 cells coexpressing GFP; type: toxicity, cell-based; conditions: read-out: Ratio CC50/IC50
Human adenovirus 5 [2] = test: Antiviral activity against Human adenovirus 5 infected in A549 cells assessed as fold reduction in virus yield at 50 uM incubated for 48 hrs by endpoint dilution method relative to control; type: functional
Human adenovirus 5 [3] = test: Antiviral activity against Human adenovirus 5 infected in HEK293beta5 cells coexpressing GFP assessed as inhibition of plaque formation at 10 uM incubated for 7 days relative to control; type: functional; conditions: Human mastadenovirus C, 168 h
[4] = Cytotoxicity against human A549 cells assessed as reduction in cell viability incubated for 48 hrs by alamarBlue assay; type: cell-based
Human adenovirus 5 [5] = test: Antiviral activity against Human adenovirus 5 infected in HEK293beta5 cells coexpressing GFP assessed as inhibition of plaque formation incubated for 7 days; type: functional, organism-based; conditions: Human mastadenovirus C, 168 h
Human betaherpesvirus 5 = test: Antiviral activity against Human cytomegalovirus infected in MRC5 cells assessed as decrease in viral DNA copies at 50 uM incubated for 72 hrs by qRT-PCR analysis; type: functional, organism-based
Human adenovirus 5 [6] = test: Antiviral activity against Human adenovirus 5 infected in A549 cells assessed as nuclear associated viral DNA copies at 50 uM incubated for 45 mins by qRT-PCR analysis; type: functional, organism-based
Human adenovirus 5 [7] = test: Antiviral activity against Human adenovirus 5 infected in A549 cells assessed as decrease in […] cDNA copies at 50 uM incubated for 24 hrs by qRT-PCR analysis; type: functional, organism-based

Structure (SMILES) | inhibition at 10 µM (Human adenovirus 5 [3]) | CC50 at 48 h [4] | also measured
O=C(c1cc2ccccc2o1)N1CCN(C(=O)Nc2ccccc2[N+](=O)[O-])C(c2ccccc2)C1 (stereo not given) | 100% |  | selectivity ratio [1]: 79; fold change (FC) (Human adenovirus 5 [2]): 9.9
CC1CN(C(=O)CC(C)(C)C)CCN1C(=S)Nc1ccc(Cl)cc1 (stereo not given) | 61.6% |  | 
CC1CN(C(=O)Cc2ccccc2)CCN1C(=S)Nc1ccc(Cl)cc1 (stereo not given) | 84.6% | 175 µM | 
CC(C)(C)OC(=O)N1CCN(C(=O)Nc2ccc([N+](=O)[O-])cc2)C(c2ccccc2)C1 (stereo not given) |  |  | selectivity ratio [1]: 47.3
CC(C)(C)OC(=O)N1CCN(C(=O)Nc2cc(C(F)(F)F)ccc2Cl)CC1 | 95% | 200 µM | selectivity ratio [1]: 87; IC50 (Human adenovirus 5 [5]): 2.3 µM; Activity (Human betaherpesvirus 5): Active; Activity (Human adenovirus 5 [6]): Active; fold change (FC) (Human adenovirus 5 [2]): 18.7
CC(C)(C)CC(=O)N1CCN(C(=O)Nc2ccc([N+](=O)[O-])cc2)C(c2ccccc2)C1 (stereo not given) | 74.4% | 72 µM | 
CC1CN(C(=O)Cc2ccccc2)CCN1C(=S)Nc1ccc(C(F)(F)F)cc1 (stereo not given) | 73.4% |  | 
Cc1ccc(NC(=O)N2C(C)CN(C(=O)c3cc4ccccc4o3)CC2C)cc1 (stereo not given) | 0% |  | 
O=C(Cc1ccccc1)N1CCN(C(=O)Nc2cc(C(F)(F)F)ccc2Cl)C(c2ccccc2)C1 (stereo not given) | 100% | 64.5 µM | 
CC(C)(C)CC(=O)N1CCN(C(=O)Nc2ccccc2[N+](=O)[O-])C(c2ccccc2)C1 (stereo not given) | 100% | 63.3 µM | 
CC1CN(C(=O)c2cc3ccccc3o2)CCN1C(=S)Nc1ccc(C(F)(F)F)cc1 (stereo not given) | 100% | 46.3 µM | 
CC1CN(C(=O)c2cc3ccccc3o2)CC(C)N1C(=O)Nc1ccccc1[N+](=O)[O-] (stereo not given) | 72.2% |  | 
CC1CN(C(=O)CC(C)(C)C)CCN1C(=S)Nc1ccc([N+](=O)[O-])cc1 (stereo not given) | 76.2% |  | 
CC1CN(C(=O)OC(C)(C)C)CCN1C(=S)Nc1cc(C(F)(F)F)cc(C(F)(F)F)c1 (stereo not given) | 11.1% |  | 
CC(C)(C)CC(=O)N1CCN(C(=S)Nc2cc(C(F)(F)F)cc(C(F)(F)F)c2)C(c2ccccc2)C1 (stereo not given) | 100% | 91.8 µM | 
CC(C)(C)OC(=O)N1CCN(C(=S)Nc2ccc(F)cc2)C(c2ccccc2)C1 (stereo not given) | 27.5% |  | 
O=C(c1cc2ccccc2o1)N1CCN(C(=O)c2cc3ccccc3o2)CC1 | 51.5% |  | 
CC(C)(C)OC(=O)N1CCN(C(=O)Nc2ccc([N+](=O)[O-])cc2)CC1 | 91.5% | 118 µM | selectivity ratio [1]: 43.7; IC50 (Human adenovirus 5 [5]): 2.7 µM; Activity (Human betaherpesvirus 5): Active; Activity (Human adenovirus 5 [7]): inactive; Activity (Human adenovirus 5 [6]): Active; fold change (FC) (Human adenovirus 5 [2]): 21.2
O=C(c1cc2ccccc2o1)N1CCN(C(=O)Nc2ccc(Cl)cc2)C(c2ccccc2)C1 (stereo not given) |  |  | selectivity ratio [1]: 42.7; fold change (FC) (Human adenovirus 5 [2]): 16.9
COc1ccc(NC(=S)N2CCN(C(=O)OC(C)(C)C)CC2C)cc1 (stereo not given) | 36.5% |  | 
O=C(CC1CCCCC1)N1CCN(C(=O)Nc2ccc([N+](=O)[O-])cc2)C(c2ccccc2)C1 (stereo not given) | 98.9% | 71.8 µM | 
O=C(Nc1ccccc1[N+](=O)[O-])N1CCN(C(=O)c2cc3ccccc3o2)CC1 | 41.5% |  | 
O=C(Cc1ccccc1)N1CCN(C(=O)Nc2ccc([N+](=O)[O-])cc2)C(c2ccccc2)C1 (stereo not given) | 82.6% | 174 µM | 

Structure (SMILES) | inhibition at 10 µM (Human adenovirus 5 [3]) | CC50 at 48 h [4] | also measured
CC1CN(C(=O)c2cc3ccccc3o2)CCN1C(=S)Nc1ccc(C#N)cc1 (stereo not given) | 100% | 25.5 µM | 
COc1ccc(NC(=S)N2CCN(C(=O)CC(C)(C)C)CC2C)cc1 (stereo not given) | 58.1% |  | 
CC1CN(C(=O)OC(C)(C)C)CCN1C(=S)Nc1ccc([N+](=O)[O-])cc1 (stereo not given) | 100% |  | 
CC1CN(C(=O)c2cc3ccccc3o2)CC(C)N1C(=O)Nc1ccc(C#N)cc1 (stereo not given) | 10% |  | 
O=C(Cc1ccccc1)N1CCN(C(=O)Nc2ccccc2[N+](=O)[O-])C(c2ccccc2)C1 (stereo not given) | 96.9% | 120 µM | selectivity ratio [1]: 57.4; IC50 (Human adenovirus 5 [5]): 2.1 µM; Activity (Human betaherpesvirus 5): Active; Activity (Human adenovirus 5 [6]): Active; fold change (FC) (Human adenovirus 5 [2]): 32.9
O=C(Nc1cc(C(F)(F)F)ccc1Cl)N1CCN(C(=O)Nc2cc(C(F)(F)F)ccc2Cl)CC1 | 33.9% |  | 
CC1CN(C(=O)CC2CCCCC2)CCN1C(=S)Nc1ccc([N+](=O)[O-])cc1 (stereo not given) | 82.6% | 148 µM | 
O=C(c1cc2ccccc2o1)N1CCN(C(=O)Nc2ccc([N+](=O)[O-])cc2)C(c2ccccc2)C1 (stereo not given) | 100% |  | selectivity ratio [1]: 93.5
O=C(Cc1ccccc1)N1CCN(C(=S)Nc2ccc([N+](=O)[O-])cc2)C(c2ccccc2)C1 (stereo not given) | 5.5% |  | 
CC1CN(C(=O)CC(C)(C)C)CCN1C(=S)Nc1ccc(F)cc1 (stereo not given) | 7.5% |  | 
CC1CN(C(=O)c2cc3ccccc3o2)CC(C)N1C(=O)Nc1ccc(Cl)c(C(F)(F)F)c1 (stereo not given) | 0% |  | 
Cc1ccc(NC(=S)N2CCN(C(=O)Cc3ccccc3)CC2C)cc1 (stereo not given) | 92.9% | 200 µM | 
N#Cc1ccc(NC(=S)N2CCN(C(=O)CC3CCCCC3)CC2c2ccccc2)cc1 (stereo not given) | 80% | 65.3 µM | 
CC1CN(C(=O)Cc2ccccc2)CCN1C(=S)Nc1ccc(F)cc1 (stereo not given) | 100% | 26.3 µM | 
CC1CN(C(=O)CC2CCCCC2)CCN1C(=S)Nc1ccc(C#N)cc1 (stereo not given) | 100% | 193 µM | selectivity ratio [1]: 77.2; IC50 (Human adenovirus 5 [5]): 2.5 µM; Activity (Human adenovirus 5 [6]): Active; fold change (FC) (Human adenovirus 5 [2]): 9.3
O=C(c1cc2ccccc2o1)N1CCN(C(=O)Nc2cc(C(F)(F)F)ccc2Cl)C(c2ccccc2)C1 (stereo not given) |  |  | selectivity ratio [1]: 116
O=C(CC1CCCCC1)N1CCN(C(=S)Nc2ccc(F)cc2)C(c2ccccc2)C1 (stereo not given) | 5% |  | 
CC1CN(C(=O)c2cc3ccccc3o2)CCN1C(=S)Nc1ccc(F)cc1 (stereo not given) | 85% | 75.4 µM | 
CC1CN(C(=O)CC2CCCCC2)CCN1C(=S)Nc1ccc(Cl)cc1 (stereo not given) | 89.3% | 200 µM | 
Cc1ccc(NC(=S)N2CCN(C(=O)CC3CCCCC3)CC2c2ccccc2)cc1 (stereo not given) | 15% |  | 
CC1CN(C(=O)c2cc3ccccc3o2)CC(C)N1C(=O)Nc1ccc([N+](=O)[O-])cc1 (stereo not given) | 12.2% |  | 
CC1CN(C(=O)c2cc3ccccc3o2)CCN1C(=S)Nc1ccc([N+](=O)[O-])cc1 (stereo not given) | 100% | 20 µM | 
CC1CN(C(=O)OC(C)(C)C)CCN1C(=S)Nc1ccc(C#N)cc1 (stereo not given) | 88.9% | 175 µM | 

Structure (SMILES) | inhibition at 10 µM (Human adenovirus 5 [3]) | CC50 at 48 h [4] | also measured
CC1CN(C(=O)CC(C)(C)C)CCN1C(=S)Nc1cc(C(F)(F)F)cc(C(F)(F)F)c1 (stereo not given) | 4.81% |  | 
O=C(Nc1cc(C(F)(F)F)ccc1Cl)N1CCN(C(=O)Nc2cc(C(F)(F)F)ccc2Cl)C(c2ccccc2)C1 (stereo not given) | 90.4% | 200 µM | 
CC1CN(C(=O)CC2CCCCC2)CCN1C(=S)Nc1cc(C(F)(F)F)cc(C(F)(F)F)c1 (stereo not given) | 100% | 82.4 µM | 
O=C(CC1CCCCC1)N1CCN(C(=O)Nc2ccccc2[N+](=O)[O-])C(c2ccccc2)C1 (stereo not given) | 100% | 112 µM | selectivity ratio [1]: 80.1; IC50 (Human adenovirus 5 [5]): 1.4 µM; Activity (Human betaherpesvirus 5): Active; Activity (Human adenovirus 5 [6]): Active; fold change (FC) (Human adenovirus 5 [2]): 15.2
CC1CN(C(=O)CC2CCCCC2)CCN1C(=S)Nc1ccc(C(F)(F)F)cc1 (stereo not given) | 88.9% | 142 µM | 
CC1CN(C(=O)OC(C)(C)C)CCN1C(=S)Nc1ccc(C(F)(F)F)cc1 (stereo not given) | 73.4% |  | 
CC(C)(C)OC(=O)N1CCN(C(=O)Nc2ccccc2[N+](=O)[O-])CC1 | 15% |  | 
CC1CN(C(=O)Cc2ccccc2)CCN1C(=S)Nc1ccc(C#N)cc1 (stereo not given) | 98.4% | 175 µM | selectivity ratio [1]: 38; IC50 (Human adenovirus 5 [5]): 4.6 µM; Activity (Human betaherpesvirus 5): Active; Activity (Human adenovirus 5 [7]): inactive; Activity (Human adenovirus 5 [6]): Active; fold change (FC) (Human adenovirus 5 [2]): 18.4
O=C(c1cc2ccccc2o1)N1CCN(C(=O)c2cc3ccccc3o2)C(c2ccccc2)C1 (stereo not given) | 19.4% |  | 
N#Cc1ccc(NC(=O)N2CCN(C(=O)c3cc4ccccc4o3)CC2c2ccccc2)cc1 (stereo not given) |  |  | selectivity ratio [1]: 53.3; fold change (FC) (Human adenovirus 5 [2]): 34.5
CC1CN(C(=O)OC(C)(C)C)CCN1C(=S)Nc1ccc(Cl)cc1 (stereo not given) | 73.4% |  | 
Nc1ccn(C[C@@H](CO)OCP(=O)(O)O)c(=O)n1.O.O [CIDOFOVIR] | 3.51% | 50.6 µM | IC50 (Human adenovirus 5 [5]): 24.1 µM; fold change (FC) (Human adenovirus 5 [2]): 82.5
Cc1ccc(NC(=S)N2CCN(C(=O)CC(C)(C)C)CC2C)cc1 (stereo not given) | 76.8% |  | 
COc1ccc(NC(=S)N2CCN(C(=O)Cc3ccccc3)CC2C)cc1 (stereo not given) | 88.9% | 175 µM | 
N#Cc1ccc(NC(=S)N2CCN(C(=O)Cc3ccccc3)CC2c2ccccc2)cc1 (stereo not given) | 64% |  | 
CC1CN(C(=O)c2cc3ccccc3o2)CC(C)N1C(=O)Nc1cc(C(F)(F)F)ccc1Cl (stereo not given) | 0% |  | 
CC1CN(C(=O)CC(C)(C)C)CCN1C(=S)Nc1ccc(C(F)(F)F)cc1 (stereo not given) | 36.3% |  | 
CC1CN(C(=O)CC(C)(C)C)CCN1C(=S)Nc1ccc(C#N)cc1 (stereo not given) | 51% |  | 
O=C(Nc1ccc([N+](=O)[O-])cc1)N1CCN(C(=O)c2cc3ccccc3o2)CC1 | 0% |  | 
CC1CN(C(=O)c2cc3ccccc3o2)CC(C)N1C(=O)Nc1ccc(Cl)cc1 (stereo not given) | 81.1% | 113 µM | 
Cc1ccc(NC(=S)N2CCN(C(=O)OC(C)(C)C)CC2C)cc1 (stereo not given) | 49.1% |  | 
COc1ccc(NC(=S)N2CCN(C(=O)CC3CCCCC3)CC2C)cc1 (stereo not given) | 25.5% |  | 
